US20060111420A1, “Sorbicillactone-a derivatives for the treatment of tumour and viral diseases” (Johannes Gutenberg-Universitat Mainz, priority 2002, published 2006)

Key:
[1] = tested on: L5178y mouse lymphoma cellular system (ATCC CRL 1722); test: Antitumoural activity, L5178y cell proliferation (XTT); assay type: cell-based; details: for Optical density (595 nm): 72 h, XTT, control 0.38; for cellular proliferation after 72 h: at >0.1 μg/ml
[2] = biological target: phospholipase A2 [from bee's poison] (Apis mellifera, UniProt P00630); test: biochemical; details: read-out: inhibition of phospholipase A2
[3] = tested on: human foreskin-fibroblasts; test: Proliferation of human foreskin-fibroblasts; assay type: cell-based; details: 30 μg/ml; cell count microscopically
mice-ear oedema = test: TPA-induced mice-ear oedema; assay type: in vivo, mice (Swiss); details: 20 μg topically 10 min after TPA (10 μg); n=5; P<=0.01

Chain of phospholipase A2 [from bee's poison] (P00630 34-167 limits assumed): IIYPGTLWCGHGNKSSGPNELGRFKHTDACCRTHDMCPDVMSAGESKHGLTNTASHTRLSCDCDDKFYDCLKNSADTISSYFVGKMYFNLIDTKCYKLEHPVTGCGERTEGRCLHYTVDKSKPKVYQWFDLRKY

Row | Compound | Optical density (595 nm) ([1]; 0.1 μg/ml) | Optical density (595 nm) ([1]; 0.3 μg/ml) | Optical density (595 nm) ([1]; 1.0 μg/ml) | Optical density (595 nm) ([1]; 3.0 μg/ml) | cellular proliferation after 72 h [1] | inhibition at 2 µg/mL [2] [%] | mortality (NMRI-mice; 20 mg/kg per day i.p. for five days) | sub-acute toxicity (NMRI-mice; male, NMRI, mouse, in vivo, ip, 5 days) [mg/kg] | effect on the proliferation [3] | inhibition of the formation of the oedema (mice-ear oedema) [%]
1 | C/C=C/C=C/C(O)=C1/C(=O)C(C)=C(O)C2(C)OC(=O)C(C)(NC(=O)C3NN=CC3C(=O)OC)C12 (stereo not drawn) [SOA-D1] | 0.29 | 0.22 | 0.05 | 0.03 | drastically reduced |  |  |  |  | 
2 | C/C=C/C=C/C(O)=C1/C(=O)C(C)=C(O)[C@@]2(C)OC(=O)[C@@](C)(NC(=O)/C=C/C(=O)O)[C@@H]12 [Sorbicillacton A, sorbicillacton A] | 0.24 | 0.19 | 0.07 | 0.06 | drastically reduced | ~80 | None of the test animals dies | > 20 | no effect on the proliferation | 39.2±5.3
